How the values were obtained:
[1] = test system: E13.5 rat embryonic pancreases; test: Beta cell development (insulin staining surface) in cultured embryonic pancreases; format: cell-based; conditions: for insulin staining surface: day 7, NAC at 10 µM or CCCP at 1 µM
Description: The embryos were harvested on E13.5. […] On every image, the surface area of insulin staining was quantified using ImageJ as described in (Heinis et al.).

[2] = test system: E13.5 rat embryonic pancreases; test: Number of NGN3-positive cells by immunohistochemistry in cultured embryonic pancreases; format: cell-based; conditions: for number of NGN3-positive endocrine progenitor cells, decrease: 1 day, NAC at 10 µM or CCCP at 1 µM
Protocol: (§1) The embryos were harvested on E13.5. The dorsal pancreatic bud was dissected, as described previously (Attali et al., 2007). For the depletion of the mesenchyme, the digestive tract was incubated with 0.5 mg/ml collagenase A (Roche, Meyaln, France) at 37°c for 30 min, then washed several times with Hank's balanced solution (Invitrogen, Cergy-Pontoise, France) at 4°c, and the epithelium was mechanically separated from the mesenchyme using needles on 0.25% agar, 25% Hank's balanced solution and 75% RPMI gel (Life Technologies, Invitrogen) in a petri dish. Pancreatic rudiments (epithelium with mesenchyme) or epithelia were then cultured at the air-medium interface on Millicell culture plate inserts (Millipore, Molsheim, France) in Petri dishes containing RPMI 1640 (Invitrogen) supplemented with penicillin (100 U/ml), streptomycin ([…]), HEPES (10 mM), l-glutamine (2 mM), nonessential amino acids (1; Invitrogen, Cergy-Pontoise, France) and 10% heat-inactivated calf serum (Hyclone, South Logan, UT, USA) for one to 7 days. […] Glucose (Sigma, Saint-Quentin Fallavier, France) was used at 20 mM/l and the inhibitor of the ERK pathway (U0126, Cell Sinaling Technologies Ozyme, Saint-Quentin, France) at 10 µmol/l. Cultures were maintained at 37°C in humidified 95% air and 5% CO2.
Ad-CMV-GFP (ref 1060, Vector Biolabs, Philadelphia, PA, USA) and Ad-Catalase (ref 1475, Vector Biolabs) adenoviruses were used to infect the embryonic Wistar rat epithelia. Tissues were incubated with viral particles at the multiplicity of infection of 1000 for 4 h at 37°C in RPMI 1640 as described in (Heinis et al.2012). After infection, tissues were washed twice in HBSS and cultured at the air-medium interface.
Tissues were fixed in 10% formalin and processed for immunohistochemistry, as described previously (Attali et al., 2007). The following antibodies were used: mouse anti-insulin (1:2000; Sigma-Aldrich), rabbit anti-PDX1 (1:1,000), rabbit anti-amylase (Sigma-Aldrich, 1:300), mouse anti-E-cadherin (1:100, BD Biosciences, Le Pont de Claix, France), mouse anti-BrdU (1:2, Amersham, Velizy-Villacoublay, France), rabbit anti-NGN3 (1:1000) (Guillemain et al., 2007), rabbit anti-catalase (1:1000, Rockland Immunochemicals, Gilbertsville, PA USA). The fluorescent secondary antibodies were fluorescein-isothiocyanate anti-rabbit and Texas-red anti-mouse antibodies (1:200, Jackson Immunoresearch, Suffolk, England), and Atexa-fluor anti-rabbit antibody (1:400, Biogenex, Fremont, CA, USA). For NGN3, revelation was performed using the vectastain ABC kit (Vector LAB, Peterborough, England). Photographs were taken using a fluorescence microscope (Leitz DMRB; Leica) and digitized using a Hamamatsu (Middlesex, NJ, USA) C5810 cooled 3CCD camera.
(§2) To quantify the number of NGN3-positive cells, NGN3-positive cells were counted on all sections. Statistical significance was determined using Student's t test.

[3] = test system: Nrf2; conditions: pancreases treated with H2O2; data not shown
Protocol: Total RNA was purified using the Rneasy microkit (Qiagen, Courtaboeuf, France). The cDNA was generated using Superscript reagents (Invitrogen), and the real-time PCR was performed on a 7300 real-time PCR system (Applied Biosystem, Invitrogen) with an SYBR Green PCR master mix. The oligonucleotide sequences for RT-PCR are available on request.

[4] = test system: beta cells; conditions: concentrations of H2O2 used
[5] = test system: ERK1/2; test: Western blot of ERK1/2 and MEK phosphorylation in cultured embryonic pancreases; format: cell-based, rat
Protocol: The embryos were harvested on E13.5. The dorsal pancreatic bud was dissected, as described previously (Attali et al., 2007). […] Glucose (Sigma, Saint-Quentin Fallavier, France) was used at 20 mM/l and the inhibitor of the ERK pathway (U0126, Cell Sinaling Technologies Ozyme, Saint-Quentin, France) at 10 µmol/l.
For Western blotting analysis, cells were lysed in Laemmli buffer. Proteins (20µg) were resolved by SDS/PAGE and electrophoretically transferred onto PVDF membrane (Bio-Rad, Hercules, CA, USA). After blocking with milk, membranes were probed with rat anti-p44/42 MAPK (Erk1/2), mouse anti-Phospho-p44/42 MAPK (Erk1/2) (Thr202/Tyr204), anti-Phospho-MEK (all from Cell Signaling Ozyme, ST Quentin en Yvelines, France) and mouse anti-actin (Sigma-Aldrich).Immunoreactive bands were visualized with the SuperSignal System (Pierce; Fisher Scientific, Illkirch, France).
The Mitogen Activated Protein Kinase (MAPK) ERK1/2 pathway, which was recently shown to be sensitive to ROS production in several cell types (Zhang et al., 2013) was examined. […] As a positive control, pancreases were also treated with 20 mM Glucose, an inducer of the ERK1/2 phosphorylation (Briaud et al., 2003). […] To further characterize ERK1/2-dependent effect of ROS on pancreas development, an ERK1/2 inhibitor was used (U0126). To validate the efficiency of the inhibitor, pancreatic explants were first cultured with glucose, in the presence or in the absence of U0126. Activation of ERK1/2 by glucose was abolished in the presence of U0126 (Figure 8A), confirming the efficiency of U0126.

[6] = test system: E13.5 rat embryonic pancreases; conditions: one day of culture, 50 µM H2O2
Protocol: as §1, with “CO2. […]” for “CO2.”
(§3) Statistical significance was determined using Student's t test.

[7] = test system: Notch receptors 1 and 2, the Notch target Hes 1, the Notch ligands Jagged 1, Jagged 2, Delta-like 1; conditions: one day, 50 µM H2O2
Protocol: as §1
Total RNA was purified using the Rneasy microkit (Qiagen, Courtaboeuf, France). […]

[8] = test system: early PDX1+ progenitors; conditions: 1 day of culture, 50 µM H2O2
Protocol: The embryos were harvested on E13.5. The dorsal pancreatic bud was dissected, as described previously (Attali et al., 2007). For the depletion of the mesenchyme, the digestive tract was incubated with 0.5 mg/ml collagenase A (Roche, Meyaln, France) at 37°c for 30 min, then washed several times with Hank's balanced solution (Invitrogen, Cergy-Pontoise, France) at 4°c, and the epithelium was mechanically separated from the mesenchyme using needles on 0.25% agar, 25% Hank's balanced solution and 75% RPMI gel (Life Technologies, Invitrogen) in a petri dish. Pancreatic rudiments (epithelium with mesenchyme) or epithelia were then cultured at the air-medium interface on Millicell culture plate inserts (Millipore, Molsheim, France) in Petri dishes containing RPMI 1640 (Invitrogen) supplemented with penicillin (100 U/ml), streptomycin ([…]), HEPES (10 mM), l-glutamine (2 mM), nonessential amino acids (1; Invitrogen, Cergy-Pontoise, France) and 10% heat-inactivated calf serum (Hyclone, South Logan, UT, USA) for one to 7 days. […]
Tissues were fixed in 10% formalin and processed for immunohistochemistry, as described previously (Attali et al., 2007). […] Photographs were taken using a fluorescence microscope (Leitz DMRB; Leica) and digitized using a Hamamatsu (Middlesex, NJ, USA) C5810 cooled 3CCD camera.
as §3

[9] = test system: embryonic pancreases; test: NAC given to pregnant rats in drinking water, analysis of embryonic pancreases; format: in vivo, Wistar Rats; conditions: pregnant rats treated with 10 mM NAC from E13.5
Description: Pregnant Wistar Rats were purchased from the Janvier Breeding center (CERJ Janvier, Le Genest Saint-Ile, France). The animals had free access to food pellets and water. Embryonic day 0.5 (E0.5) was considered the first day postcoïtum. Pregnant female were killed by CO2 asphyxiation according to the guidelines of the French Animal Care Committee.
N-Acetyl cystein (Sigma, Saint-Quentin Fallavier, France) treatment was initiated during embryonic life at E13.5 and given into drinking water to pregnant females.
For NGN3, revelation was performed using the vectastain ABC kit (Vector LAB, Peterborough, England).
To quantify the absolute number of insulin-expressing cells, all sections of each pancreatic rudiment were digitized. On every image, the surface area of insulin staining was quantified using ImageJ as described in (Heinis et al.).
as §2
Female pregnant rats at 13.5 days postcoitus were treated with NAC, and the number of NGN3-positive cells was measured.

## N#CC(C#N)=NNc1cccc(Cl)c1 [CCCP, Carbonyl cyanide m-chlorophenyl hydrazone]
[1]
  insulin staining surface: decrease
[2]
  number of NGN3-positive endocrine progenitor cells, decrease: ~2 fold

## OO [H2O2, hydrogen peroxide]
[1]; H2O2 50µM, analyzed seven days later
  insulin surface, larger than controls: 2.6 fold
[3]
  Nrf2 RNA levels: slight increase
[2]; H2O2 at 50 µM, without U0126
  number of NGN3 expressing cells: increased
[2]; day 1, 50 µM H2O2
  number of NGN3-positive cells, increase: ~2 fold
[4]
  oxidative stress or damage in the resulting beta cells: did not produce detectable oxidative stress or damage
[5]; 5 or 15 minutes, H2O2 50 µM or 20 mM Glucose
  activation of the ERK1/2 pathway: induced
[5]; H2O2 50 µM
  time after addition at which ERK1/2 activation was observed: five
[6]
  rate of apoptosis vs controls: No difference
[7]
  expression of Notch pathway genes vs controls: No difference
[8]
  rate of cell proliferation (BrdU incorporation) vs controls: similar

## CC(=O)N[C@@H](CS)C(=O)O [NAC, N-Acetyl cystein]
[9]; at E20.5
  reduction of the beta cell mass: 2.5 fold
[9]; embryonic pancreases analyzed at E20.5
  number of NGN3-positive cells, decrease compared to controls: 1.6 fold
[1]
  insulin staining surface: decrease
[2]
  number of NGN3-positive endocrine progenitor cells, decrease: ~2 fold

## N#CC(=C(/N)Sc1ccccc1N)/C(C#N)=C(\N)Sc1ccccc1N [U0126, reference compound]
[2]; H2O2 at 50 µM with U0126
  H2O2-induced increase of NGN3 expressing cells in the presence of the inhibitor: abrogated
[5]; 20 mM Glucose, U0126 10 µmol/l
  activation of ERK1/2 by glucose in the presence of the inhibitor: abolished
[5]; H2O2 50 µM, U0126 10 µmol/l
  activation of the ERK1/2 pathway by H2O2 in the presence of the inhibitor: blunted

From patent EP2896688A1 (Centre National de la Recherche Scientifique (CNRS), priority 2014, dated 2015)
